Test systems include SNB-75 CNS; UO-31 renal; ACHN renal; KM12 colon; UACC-257 melanoma; LOX IMVI melanoma; SF-539 CNS; SF-295 CNS; OVCAR-8 ovarian; K-562 leukemia.
Holding throughout (assay): inhibition of tumour cell growth, NCI panel, 48 h

SMILES strings stand for the structures. Several values for one entry are separate records, joined by “and”; a condition that tells them apart may be missing. Identical values can stand only once.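 Cultured in 96-well plates, cells were exposed to test compound for 48 hours across five concentrations. The concentration for 50% growth inhibition is given as GI50. TGI denotes the concentration required for complete inhibition of growth.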 Bounds are passed on as bounds.

`CCCCCCCCCCCCCB(O)O`: the TGI was > 100 µM and 37.6 µM in the assay on SNB-75 CNS; more than 100 µM in the assay on UO-31 renal; more than 100 µM in the assay with ACHN renal; more than 100 µM with KM12 colon; more than 100 µM in the assay with UACC-257 melanoma; more than 100 µM in the assay on LOX IMVI melanoma. Besides, the TGI in the assay with SF-539 CNS, in the assay on SF-295 CNS and in the assay with OVCAR-8 ovarian was more than 100 µM throughout. Besides, the GI50 in the assay on UO-31 renal is > 100 µM and 27.5 µM; in the assay with ACHN renal, > 100 µM and 45.4 µM; in the assay on KM12 colon, > 100 µM and 35.8 µM.

As to `c1ccc2c(NCCCCCCNc3cccc4ccccc34)cccc2c1`, the TGI in the assay on SNB-75 CNS, with UO-31 renal, in the assay with ACHN renal, in the assay with K-562 leukemia, in the assay on KM12 colon and in the assay with UACC-257 melanoma was more than 100 µM each time. Moreover, the TGI in the assay with SF-539 CNS, in the assay on SF-295 CNS and in the assay with OVCAR-8 ovarian was more than 100 µM throughout.

`COC(=O)C(=O)C(C(=O)C(=O)Nc1cc(C)ccc1C)c1nc2ccc(C(=O)c3ccccc3)cc2[nH]c1=O` (centres undefined): the TGI with UO-31 renal, in the assay with ACHN renal, in the assay with K-562 leukemia, with KM12 colon, with UACC-257 melanoma and with SF-539 CNS was more than 100 µM each time. Also, the TGI with SF-295 CNS and in the assay on OVCAR-8 ovarian was more than 100 µM in each case.

As for `COc1ccc(/C=C2\c3cc(OC)c(OC)c(OC)c3CC[C@@H]2O)cc1F`, the GI50 in the assay on UO-31 renal is 0.534 µM; in the assay with ACHN renal it was 0.815 µM; in the assay on K-562 leukemia, 0.0865 µM; in the assay with KM12 colon it was 0.373 µM; with UACC-257 melanoma, more than 100 µM; in the assay on LOX IMVI melanoma it was 0.395 µM. Also, the GI50 with SF-539 CNS is 0.272 µM; with SF-295 CNS, 0.222 µM; in the assay with OVCAR-8 ovarian, 0.598 µM. Further, the TGI with UO-31 renal is 89.9 µM; with ACHN renal, more than 100 µM; in the assay on K-562 leukemia it was more than 100 µM; with KM12 colon, more than 100 µM; in the assay with UACC-257 melanoma, more than 100 µM; with LOX IMVI melanoma, 48.6 µM. Further, the TGI was 0.917 µM with SF-539 CNS, more than 100 µM in the assay on SF-295 CNS and 93.4 µM with OVCAR-8 ovarian.

As for `CCCCN(CCCC)CCCn1cnc2ncccc2c1=O`, the TGI with SNB-75 CNS, with UO-31 renal, in the assay with ACHN renal, in the assay with K-562 leukemia, in the assay with KM12 colon and in the assay with LOX IMVI melanoma was more than 100 µM throughout. Further, the TGI with SF-539 CNS, in the assay on SF-295 CNS and with OVCAR-8 ovarian was more than 100 µM in each case.

`COc1ccc(OC)c(/C=C/c2nc(SCc3ccccc3)n(-c3ccc(Cl)cc3)n2)c1`: the GI50 is 3.92 µM in the assay on SNB-75 CNS; 23.2 µM in the assay with ACHN renal; 4.23 µM with K-562 leukemia; 4.99 µM in the assay with KM12 colon; more than 100 µM with UACC-257 melanoma; 2.89 µM in the assay with LOX IMVI melanoma. Also, the GI50 in the assay on SF-539 CNS is 4.25 µM; in the assay on SF-295 CNS, 3.5 µM; with OVCAR-8 ovarian, 9.36 µM. Moreover, the TGI in the assay with SNB-75 CNS, with ACHN renal, in the assay with K-562 leukemia, in the assay with KM12 colon, in the assay on UACC-257 melanoma and in the assay with LOX IMVI melanoma was more than 100 µM throughout. Moreover, the TGI with SF-539 CNS was more than 100 µM; in the assay on SF-295 CNS, 36.6 µM; with OVCAR-8 ovarian, more than 100 µM.

For the compound `O=C(O)CCC(C(=O)O)N1C(=O)C2C3CCC(C3)C2C1=O` (centres undefined), the TGI in the assay on SNB-75 CNS, in the assay with ACHN renal, in the assay with K-562 leukemia, in the assay with KM12 colon, with UACC-257 melanoma and in the assay with LOX IMVI melanoma was more than 100 µM in each case. In addition, the TGI in the assay with SF-539 CNS, in the assay with SF-295 CNS and in the assay on OVCAR-8 ovarian was more than 100 µM each time.

As to `CC1=C([Se]CC(OC(=O)[C@@H](CO)NC(=O)OC(C)(C)C)C(=O)NCCCCCC(=O)OCc2ccccc2)C(=O)c2ccccc2C1=O` (some centres undefined), the GI50 is 1.29 µM in the assay with SNB-75 CNS; 1.54 µM in the assay with UO-31 renal; 1.65 µM in the assay with ACHN renal; 1.53 µM with KM12 colon; 1.84 µM in the assay on LOX IMVI melanoma; 1.7 µM in the assay on SF-539 CNS. In addition, the GI50 was 0.321 µM in the assay on SF-295 CNS and 1.84 µM in the assay with OVCAR-8 ovarian. In addition, the TGI worked out at 2.55 µM with SNB-75 CNS; 3.03 µM in the assay with UO-31 renal; 3.07 µM in the assay on ACHN renal; 2.9 µM in the assay on KM12 colon; 3.72 µM in the assay on LOX IMVI melanoma; 3.09 µM in the assay with SF-539 CNS. The TGI in the assay on SF-295 CNS is 1.51 µM; in the assay on OVCAR-8 ovarian, 3.36 µM.

As to `C/C(=N\NC(=O)CC(=O)N(C(=O)c1ccc(Cl)cc1)c1ccc(C)cc1)c1ccccc1O`, the TGI is 43.9 µM with SNB-75 CNS; more than 100 µM in the assay on UO-31 renal; more than 100 µM in the assay with ACHN renal; more than 100 µM in the assay on K-562 leukemia; more than 100 µM with KM12 colon; more than 100 µM with UACC-257 melanoma. The TGI in the assay with SF-539 CNS, in the assay with SF-295 CNS and in the assay on OVCAR-8 ovarian was more than 100 µM in each case.

With `Cc1ccc(S(=O)(=O)Nc2ccc(-c3cc(-c4cccc(F)c4)c(C#N)c(N)n3)cc2)cc1`, the GI50 with UO-31 renal was 1.32 µM; in the assay with ACHN renal, 1.58 µM; in the assay with K-562 leukemia, 2.63 µM; in the assay with KM12 colon it was 3.1 µM; in the assay with UACC-257 melanoma, 1.93 µM; in the assay on LOX IMVI melanoma it was 1.82 µM. In addition, the GI50 was 1.56 µM in the assay on SF-539 CNS, 3.33 µM with SF-295 CNS and 2.43 µM in the assay with OVCAR-8 ovarian. Further, the TGI in the assay with UO-31 renal is 2.59 µM; in the assay on ACHN renal it was 2.92 µM; with K-562 leukemia it was more than 100 µM; in the assay with KM12 colon, 10.2 µM; with UACC-257 melanoma, 4.24 µM; with LOX IMVI melanoma it was 3.66 µM. For the same compound, the TGI in the assay on SF-539 CNS is 3.02 µM; with SF-295 CNS, 14.5 µM; in the assay on OVCAR-8 ovarian, 7.83 µM.

In the case of `CC(C)C1N2CCCCC2[C@@H]2c3[nH]c4ccccc4c3CCN12` (some centres undefined), the TGI with SNB-75 CNS, in the assay with UO-31 renal, with ACHN renal, in the assay on K-562 leukemia, in the assay on UACC-257 melanoma and with SF-539 CNS was more than 100 µM each time. Moreover, the TGI in the assay with SF-295 CNS and in the assay with OVCAR-8 ovarian was more than 100 µM in each case.

Source of the values: PubChem BioAssay (NCI).
